From patent US8119692B2 (priority 2007, dated 2012) come the findings set out here.

pKi: −log10 of the molar value. A value given as a limit tells only on which side of the number the result lay.

Lethal factor protease, sequence (P15917 34-809 limits assumed): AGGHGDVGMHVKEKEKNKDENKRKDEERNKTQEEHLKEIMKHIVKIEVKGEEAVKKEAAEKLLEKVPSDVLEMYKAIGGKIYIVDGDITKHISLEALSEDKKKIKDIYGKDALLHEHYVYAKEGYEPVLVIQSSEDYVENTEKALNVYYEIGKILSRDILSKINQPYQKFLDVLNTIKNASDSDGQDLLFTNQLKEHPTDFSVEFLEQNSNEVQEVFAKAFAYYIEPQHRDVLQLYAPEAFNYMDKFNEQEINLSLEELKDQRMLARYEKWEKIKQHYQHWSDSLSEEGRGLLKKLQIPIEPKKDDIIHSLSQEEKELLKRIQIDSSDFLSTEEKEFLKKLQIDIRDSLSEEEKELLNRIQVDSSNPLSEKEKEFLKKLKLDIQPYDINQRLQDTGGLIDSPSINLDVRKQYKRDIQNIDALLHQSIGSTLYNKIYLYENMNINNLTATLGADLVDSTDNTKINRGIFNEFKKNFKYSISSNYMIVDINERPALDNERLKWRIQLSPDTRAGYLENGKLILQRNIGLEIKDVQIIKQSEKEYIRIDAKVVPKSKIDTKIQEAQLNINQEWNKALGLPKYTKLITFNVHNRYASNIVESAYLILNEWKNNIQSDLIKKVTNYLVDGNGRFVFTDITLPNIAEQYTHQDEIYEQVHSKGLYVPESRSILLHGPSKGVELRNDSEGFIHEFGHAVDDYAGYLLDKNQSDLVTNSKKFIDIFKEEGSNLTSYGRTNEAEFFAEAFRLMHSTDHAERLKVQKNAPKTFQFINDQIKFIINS

The experiment addresses Lethal factor protease (Bacillus anthracis, UniProt P15917). Description: biochemical. The following applies: LF (FRET) Ki^app.
Usually pKi stands for the Ki on a negative log10 scale, so that one unit is a factor of ten. Regarding `O=C(CCC(O)c1ccc(F)cc1)NO` (racemic) [Compound 166976, 4-(4-fluorophenyl)-N,4-dihydroxybutanamide], the pKi is 3.86. Then `O=C(CCC(OCc1ccccc1)c1ccc(F)cc1)NO` (racemic) [Compound 167151, 4-(benzyloxy)-4-(4-fluorophenyl)-N-hydroxybutanamide], with 3.89; and `CCOC(CCC(=O)NO)c1ccc(F)cc1` (racemic) [Compound 167173, 4-ethoxy-4-(4-fluorophenyl)-N-hydroxybutanamide], with 3.77; and `CSC(CCC(=O)NO)c1ccc(F)cc1` (racemic) [Compound 167366, 4-(4-Fluoro-phenyl)-N-hydroxy-4-methylsulfanyl-butyramide], with 4.96. In the case of `COC(CCC(=O)NO)c1ccc(F)cc1` (stereo not shown) [Compound 167157, 4-(4-fluorophenyl)-N-hydroxy-4-methoxybutanamide] it was 4.93; in that of `CO[C@H](CCC(=O)NO)c1ccc(F)cc1` [Compound 167204, (R)-4-(4-fluorophenyl)-N-hydroxy-4-methoxybutanamide], 5.10; in that of `CO[C@@H](CCC(=O)NO)c1ccc(F)cc1` [Compound 167205, (S)-4-(4-fluorophenyl)-N-hydroxy-4-methoxybutanamide], 3.65. Then `O=C(CC[C@@H](O)c1ccc(F)cc1)NO` [Compound 167206, (R)-4-(4-fluorophenyl)-N,4-dihydroxybutanamide], with 4.18; and `CO[C@H](CCC(=O)NO)c1ccc(F)c(C)c1` [Compound 167223, (R)-4-(4-fluoro-3-methylphenyl)-N-hydroxy-4-methoxybutanamide], with 4.92. The molecule `COC(CCC(=O)NO)c1ccc(F)c(C)c1` (stereo not shown) [Compound 167232, 4-(4-fluoro-3-methylphenyl)-N-hydroxy-4-methoxybutanamide] showed a negative logarithm of the Ki (pKi) of 5.05. Then `COC(CC(Cc1ccccc1)C(=O)NO)c1ccc(F)cc1` (stereo not shown) [Compound 167285], with < 3.52; and `COC(CC(Cc1ccccc1)C(=O)NO)c1ccc(F)cc1` (stereo not shown) [Compound 167286, 2-Benzyl-4-(4-fluorophenyl)-N-hydroxy-4-methoxy-butyramide], with 3.77. Then `COC(CC(C)C(=O)NO)c1ccc(F)cc1` (stereo not shown) [Compound 167288, 4-(4-Fluoro-phenyl)-N-hydroxy-4-methoxy-2-methyl-butyramide], with 5.51; and `CO[C@H](C[C@H](C)C(=O)NO)c1ccc(F)cc1` [Compound 167297, (2S,4R)-4-(4-fluorophenyl)-N-hydroxy-4-methoxy-2-methylbutanamide], with 5.64; and `CO[C@H](C[C@H](Cc1ccccc1)C(=O)NO)c1ccc(F)cc1` [Compound 167298], with 4.05. Then `COC(CC(CCc1ccccc1)C(=O)NO)c1ccc(F)cc1` (stereo not shown) [Compound 167308, 4-(4-fluorophenyl)-N-hydroxy-4-methoxy-2-phenethylbutanamide], with 5.62; and `CCCC[C@@H](C[C@@H](OC)c1ccc(F)cc1)C(=O)NO` [Compound 167336, (S)-2-((R)-2-(4-fluorophenyl)-2-methoxyethyl)-N-hydroxyhexanamide], with 5.72; and `CO[C@H](C[C@H](CCCc1ccccc1)C(=O)NO)c1ccc(F)cc1` [Compound 167337, (2S)-2-((2R)-2-(4-fluorophenyl)-2-methoxyethyl)-N-hydroxy-5-phenylpentanamide], with 5.11. Regarding `CO[C@@H](C[C@@H](CCCc1ccccc1)C(=O)NO)c1ccc(F)cc1` [Compound 167341, (2R)-2-((2S)-2-(4-fluorophenyl)-2-methoxyethyl)-N-hydroxy-5-phenylpentanamide], the pKi was 4.74. Then `CCCC[C@H](C[C@@H](OC)c1ccc(F)cc1)C(=O)NO` [Compound 167353, (2R)-2-((2R)-2-(4-fluorophenyl)-2-methoxyethyl)-N-hydroxyhexanamide], with 5.24; and `CO[C@H](C[C@H](C/C=C/c1ccccc1)C(=O)NO)c1ccc(F)cc1` [Compound 167354], with 5.03. In the case of `CO[C@H](C[C@H](C/C=C/C(c1ccccc1)c1ccccc1)C(=O)NO)c1ccc(F)cc1` [Compound 167371, (2S,4E)-2-((2R)-2-(4-fluorophenyl)-2-methoxyethyl)-N-hydroxy-6,6-diphenylhex-4-enamide] it was 4.85; in that of `CCCC[C@H](C[C@H](OC)c1ccc(F)cc1)C(=O)NO` [Compound 167389, (2R)-2-((2S)-2-(4-fluorophenyl)-2-methoxyethyl)-N-hydroxyhexanamide], 4.12. Molecule `CCCC[C@@H](C[C@H](OC)c1ccc(F)cc1)C(=O)NO` [Compound 167390, (25)-2-((2S)-2-(4-fluorophenyl)-2-methoxyethyl)-N-hydroxyhexanamide] gave a pKi of 3.65. For the molecule `CO[C@H](C[C@@H](CCCc1ccccc1)C(=O)NO)c1ccc(F)cc1` [Compound 167395, (2R)-2-((2R)-2-(4-fluorophenyl)-2-methoxyethyl)-N-hydroxy-5-phenylpentanamide], the pKi is 4.10. Then `CO[C@@H](C[C@H](CCCc1ccccc1)C(=O)NO)c1ccc(F)cc1` [Compound 167408], with < 3.52; and `CCC[C@@H](C[C@@H](OC)c1ccc(F)cc1)C(=O)NO` [Compound 167432, (S)-2-((R)-2-(4-fluorophenyl)-2-methoxyethyl)-N-hydroxypentanamide], with 5.80; and `CO[C@H](C[C@H](CC1CC1)C(=O)NO)c1ccc(F)cc1` [Compound 167433, (2S,4R)-2-(cyclopropylmethyl)-4-(4-fluorophenyl)-N-hydroxy-4-methoxybutanamide], with 5.85. Consider `C=CC[C@@H](C[C@@H](OC)c1ccc(F)cc1)C(=O)NO` [Compound 167434, (2S)-2-((2R)-2-(4-fluorophenyl)-2-methoxyethyl)-N-hydroxypent-4-enamide], for which the negative-log Ki (pKi) is 5.94.

`COC(CCC(=O)NO)c1cccc(F)c1` (stereo not shown) [Compound 167456, 4-(3-fluorophenyl)-N-hydroxy-4-methoxybutanamide] had a pKi of 4.29. Then `COc1ccc(C(CCC(=O)NO)OC)cc1` (stereo not shown) [Compound 167457, N-hydroxy-4-methoxy-4-(4-methoxyphenyl)butanamide], with 3.72. `COc1cccc(C(CCC(=O)NO)OC)c1` (stereo not shown) [Compound 167458, N-hydroxy-4-methoxy-4-(3-methoxyphenyl)butanamide] showed a pKi of 3.56.

Regarding `COC(CCC(=O)NO)c1ccc(Cl)cc1` (stereo not shown) [Compound 167460, 4-(4-chlorophenyl)-N-hydroxy-4-methoxybutanamide], the pKi was 4.28. As to `COC(CCC(=O)NO)c1cccc(Cl)c1` (stereo not shown) [Compound 167461, 4-(3-chlorophenyl)-N-hydroxy-4-methoxybutanamide], the pKi was 4.06. In the case of `COC(CCC(=O)NO)c1ccc(C)c(F)c1` (stereo not shown) [Compound 167463, 4-(3-fluoro-4-methylphenyl)-N-hydroxy-4-methoxybutanamide] it was 4.18; in that of `COC(CCC(=O)NO)c1cccc(C)c1` (stereo not shown) [Compound 167491, N-hydroxy-4-methoxy-4-m-tolylbutanamide], 3.75; in that of `COC(CCC(=O)NO)c1cccc(C(F)(F)F)c1` (stereo not shown) [Compound 167492, N-hydroxy-4-methoxy-4-(3-(trifluoromethyl)phenyl)butanamide], < 3.52.
